Test results reported in patent US20230151003A1, “COMPOUNDS AND METHODS OF USE” (Exelixis, Inc., priority 2020, published 2023).

Columns and labels:
[1] = target: Met (Homo sapiens, UniProt P08581); test: Met autophosphorylation ELISA in PC-3 cells; format: cell-based; parameters: endogenous in cells; host or cells: PC-3 prostate cancer cells (ATCC #CRL-1435); conditions: Table 3 Cellular Activities, HGF-stimulated, phospho-Met ELISA, read-out: c-Met IC50
In short: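 IC50 derived by 4-parameter logistic regression of phospho-Met (panTyr) sandwich ELISA signal, scaled between HGF-stimulated DMSO and reference-inhibitor lysates. PC-3 cells, serum-starved 3 h, received an 8-point compound series (0.3% DMSO) for 1 h before 10 min stimulation with 100 ng/mL human HGF.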

[2] = target: KDR (Homo sapiens, UniProt P35968); test: KDR autophosphorylation ELISA in HUVEC cells; format: cell-based; parameters: endogenous in cells; host or cells: HUVEC (Lonza #C2519A); conditions: Table 3 Cellular Activities, VEGF165-stimulated, phospho-KDR ELISA
In short: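 Read-out: phospho-KDR ELISA on cell lysates, quantified against a phospho-KDR standard, normalised to VEGF-stimulated DMSO (100%) and unstimulated (0%) wells, IC50 by 4-parameter fit. Cells were 24 h serum-starved HUVEC given compound for 1 h, then 100 ng/mL VEGF165 for 5 min.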

Chain of KDR (P35968 20-1356): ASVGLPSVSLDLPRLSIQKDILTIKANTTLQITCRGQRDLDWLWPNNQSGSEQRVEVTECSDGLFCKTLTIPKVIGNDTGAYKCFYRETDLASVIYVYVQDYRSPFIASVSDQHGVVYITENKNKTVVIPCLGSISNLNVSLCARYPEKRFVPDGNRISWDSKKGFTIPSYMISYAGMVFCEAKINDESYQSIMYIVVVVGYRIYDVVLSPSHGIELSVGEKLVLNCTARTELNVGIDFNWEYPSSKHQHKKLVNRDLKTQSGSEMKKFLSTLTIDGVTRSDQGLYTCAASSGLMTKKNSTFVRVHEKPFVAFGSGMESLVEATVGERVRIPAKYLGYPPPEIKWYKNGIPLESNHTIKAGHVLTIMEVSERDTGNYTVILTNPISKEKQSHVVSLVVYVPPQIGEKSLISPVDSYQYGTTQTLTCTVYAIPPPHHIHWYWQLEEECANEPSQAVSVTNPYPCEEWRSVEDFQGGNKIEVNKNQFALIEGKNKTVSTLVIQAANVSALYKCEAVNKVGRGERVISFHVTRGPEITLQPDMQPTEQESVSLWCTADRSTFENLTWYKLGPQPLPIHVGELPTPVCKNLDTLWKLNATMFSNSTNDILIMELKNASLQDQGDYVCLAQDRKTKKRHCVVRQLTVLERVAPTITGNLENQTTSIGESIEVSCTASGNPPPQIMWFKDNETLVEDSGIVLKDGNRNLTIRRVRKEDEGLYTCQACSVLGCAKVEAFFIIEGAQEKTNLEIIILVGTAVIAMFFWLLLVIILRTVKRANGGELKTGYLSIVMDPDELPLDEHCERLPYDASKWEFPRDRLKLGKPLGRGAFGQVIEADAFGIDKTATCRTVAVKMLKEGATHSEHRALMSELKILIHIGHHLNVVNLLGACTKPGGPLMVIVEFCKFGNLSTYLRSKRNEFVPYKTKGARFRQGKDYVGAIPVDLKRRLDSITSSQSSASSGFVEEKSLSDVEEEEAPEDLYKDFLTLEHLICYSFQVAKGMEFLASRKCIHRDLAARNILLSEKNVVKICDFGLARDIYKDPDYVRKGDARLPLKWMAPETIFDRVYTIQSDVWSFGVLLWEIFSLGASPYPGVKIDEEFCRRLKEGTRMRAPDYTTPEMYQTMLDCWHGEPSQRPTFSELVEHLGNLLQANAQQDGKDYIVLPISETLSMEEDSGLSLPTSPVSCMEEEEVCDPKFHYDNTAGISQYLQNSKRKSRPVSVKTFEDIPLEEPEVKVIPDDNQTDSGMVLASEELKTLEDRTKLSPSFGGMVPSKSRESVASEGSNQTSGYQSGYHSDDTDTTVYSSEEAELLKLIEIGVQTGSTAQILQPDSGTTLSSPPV
Chain of Met (P08581 25-1390): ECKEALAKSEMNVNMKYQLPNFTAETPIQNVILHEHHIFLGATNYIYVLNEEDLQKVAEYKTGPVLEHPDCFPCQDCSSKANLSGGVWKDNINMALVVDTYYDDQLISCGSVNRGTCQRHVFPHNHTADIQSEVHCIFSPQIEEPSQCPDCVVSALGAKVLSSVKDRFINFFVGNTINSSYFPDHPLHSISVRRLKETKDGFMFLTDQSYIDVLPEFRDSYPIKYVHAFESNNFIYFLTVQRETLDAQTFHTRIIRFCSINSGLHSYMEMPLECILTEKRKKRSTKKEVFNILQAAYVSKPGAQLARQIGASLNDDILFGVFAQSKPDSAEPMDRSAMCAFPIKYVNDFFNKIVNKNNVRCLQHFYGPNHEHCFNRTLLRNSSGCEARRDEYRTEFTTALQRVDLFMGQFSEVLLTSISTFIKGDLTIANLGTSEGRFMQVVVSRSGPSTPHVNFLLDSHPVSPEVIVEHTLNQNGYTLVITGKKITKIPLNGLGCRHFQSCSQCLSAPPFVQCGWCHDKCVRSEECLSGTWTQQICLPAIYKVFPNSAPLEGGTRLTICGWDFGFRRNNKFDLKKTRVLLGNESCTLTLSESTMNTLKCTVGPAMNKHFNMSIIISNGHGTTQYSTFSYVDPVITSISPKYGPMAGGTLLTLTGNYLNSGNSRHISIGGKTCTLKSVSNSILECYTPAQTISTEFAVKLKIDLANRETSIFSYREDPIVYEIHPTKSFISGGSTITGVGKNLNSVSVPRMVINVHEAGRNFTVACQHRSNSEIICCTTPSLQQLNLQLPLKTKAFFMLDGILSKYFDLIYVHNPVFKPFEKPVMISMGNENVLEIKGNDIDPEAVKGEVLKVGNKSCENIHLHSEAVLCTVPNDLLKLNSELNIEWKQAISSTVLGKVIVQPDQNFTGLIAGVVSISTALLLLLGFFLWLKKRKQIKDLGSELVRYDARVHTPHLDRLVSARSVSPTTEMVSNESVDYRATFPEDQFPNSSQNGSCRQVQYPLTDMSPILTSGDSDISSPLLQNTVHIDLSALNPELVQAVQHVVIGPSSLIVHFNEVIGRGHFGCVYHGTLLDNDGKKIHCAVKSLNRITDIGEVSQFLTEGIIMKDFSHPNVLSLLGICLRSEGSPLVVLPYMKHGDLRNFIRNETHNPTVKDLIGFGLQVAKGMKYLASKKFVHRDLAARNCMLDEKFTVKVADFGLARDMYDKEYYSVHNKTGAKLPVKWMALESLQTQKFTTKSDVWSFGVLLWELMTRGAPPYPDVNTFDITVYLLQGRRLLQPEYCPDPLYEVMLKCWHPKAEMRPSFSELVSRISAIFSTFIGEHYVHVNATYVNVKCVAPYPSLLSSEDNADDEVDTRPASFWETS

Compound | IC50 [1] | IC50 [2]
COc1cc2nccc(Oc3ccc(NC(=O)c4c(C)nc(C)c(-c5ccco5)c4O)cc3F)c2nc1OC [Compound 135, N-[4-[(6,7-Dimethoxy-1,5-naphthyridin-4-yl)oxy]-3-fluorophenyl]-5-(furan-2-yl)-4-hydroxy-2,6-dimethylpyridine-3-carboxamide] | ≤ 100 nM | ≤ 100 nM
COc1cc2nccc(Oc3ccc(NC(=O)c4cnc(C)c(-c5ccc(C)o5)c4O)cc3F)c2nc1OC [Compound 92, N-[4-[(6,7-Dimethoxy-1,5-naphthyridin-4-yl)oxy]-3-fluoro-phenyl]-4-hydroxy-6-methyl-5-(5-methyl-2-furyl)pyridine-3-carboxamide] | ≤ 100 nM | ≤ 100 nM
COc1cc2nccc(Oc3ccc(NC(=O)c4c(C)nc(C)c(-c5ccc(C(C)C)o5)c4O)cc3F)c2nc1OC [Compound 148, N-[4-[(6,7-Dimethoxy-1,5-naphthyridin-4-yl)oxy]-3-fluorophenyl]-4-hydroxy-2,6-dimethyl-5-(5-propan-2-ylfuran-2-yl)pyridine-3-carboxamide] | ≤ 100 nM | ≤ 100 nM
C=C(C)c1ccc(-c2c(C)ncc(C(=O)Nc3ccc(Oc4ccnc5cc(OC)c(OC)nc45)c(F)c3)c2O)o1 [Compound 152, N-[4-[(6,7-Dimethoxy-1,5-naphthyridin-4-yl)oxy]-3-fluorophenyl]-4-hydroxy-6-methyl-5-(5-prop-1-en-2-ylfuran-2-yl)pyridine-3-carboxamide] | 100 to 300 nM | ≤ 100 nM
COc1cnc2c(Oc3ccc(NC(=O)c4cn(CCF)c(C)c(-c5cccs5)c4=O)cc3F)ccnc2c1 [Compound 331, 1-(2-Fluoroethyl)-N-[3-fluoro-4-[(7-methoxy-1,5-naphthyridin-4-yl)oxy]phenyl]-6-methyl-4-oxo-5-thiophen-2-ylpyridine-3-carboxamide] | ≤ 100 nM | 300 to 1000 nM
COc1ccc2nccc(Oc3ccc(NC(=O)c4cnc(C)c(-c5ccco5)c4O)cc3F)c2n1 [Compound 118, N-[3-Fluoro-4-[(6-methoxy-1,5-naphthyridin-4-yl)oxy]phenyl]-5-(furan-2-yl)-4-hydroxy-6-methylpyridine-3-carboxamide] | ≤ 100 nM | ≤ 100 nM
COc1cc2nccc(Oc3ccc(NC(=O)c4cnc(C)c(-c5cnoc5)c4O)cc3F)c2nc1OC [Compound 140, N-[4-[(6,7-Dimethoxy-1,5-naphthyridin-4-yl)oxy]-3-fluorophenyl]-4-hydroxy-6-methyl-5-(1,2-oxazol-4-yl)pyridine-3-carboxamide] | ≤ 100 nM | ≤ 100 nM
COc1ccc2nccc(Oc3ccc(NC(=O)c4cnc(C)c(-c5cccs5)c4O)cc3F)c2n1 [Compound 128, N-[3-Fluoro-4-[(6-methoxy-1,5-naphthyridin-4-yl)oxy]phenyl]-4-hydroxy-6-methyl-5-thiophen-2-ylpyridine-3-carboxamide] | ≤ 100 nM | ≤ 100 nM
COc1cc2nccc(Oc3ccc(NC(=O)c4cnc(C)c(-c5cc(C)nn5C)c4O)cc3F)c2nc1OC [Compound 136, N-[4-[(6,7-Dimethoxy-1,5-naphthyridin-4-yl)oxy]-3-fluorophenyl]-5-(2,5-dimethylpyrazol-3-yl)-4-hydroxy-6-methylpyridine-3-carboxamide] | ≤ 100 nM | ≤ 100 nM
COc1cc2nccc(Oc3ccc(NC(=O)c4cnc(C)c(-c5cncs5)c4O)cc3F)c2nc1OC [Compound 141, N-[4-[(6,7-Dimethoxy-1,5-naphthyridin-4-yl)oxy]-3-fluorophenyl]-4-hydroxy-6-methyl-5-(1,3-thiazol-5-yl)pyridine-3-carboxamide] | ≤ 100 nM | ≤ 100 nM
COc1cc2nccc(Oc3ccc(NC(=O)c4cnc(C)c(-c5ccc(C(C)C)o5)c4O)cc3F)c2nc1OC [Compound 154, N-[4-[(6,7-Dimethoxy-1,5-naphthyridin-4-yl)oxy]-3-fluorophenyl]-4-hydroxy-6-methyl-5-(5-propan-2-ylfuran-2-yl)pyridine-3-carboxamide] | ≤ 100 nM | ≤ 100 nM
COc1cc2nccc(Oc3ccc(NC(=O)c4c(C)nc(C)c(-c5ccoc5)c4O)cc3F)c2nc1OC [Compound 112, N-[4-[(6,7-Dimethoxy-1,5-naphthyridin-4-yl)oxy]-3-fluoro-phenyl]-5-(3-furyl)-4-hydroxy-2,6-dimethyl-pyridine-3-carboxamide] | ≤ 100 nM | ≤ 100 nM
COc1cc2nccc(Oc3ccc(NC(=O)c4c(C)ncc(-c5cc(C)cs5)c4O)cc3F)c2nc1OC [Compound 125, N-[4-[(6,7-Dimethoxy-1,5-naphthyridin-4-yl)oxy]-3-fluorophenyl]-4-hydroxy-2-methyl-5-(4-methylthiophen-2-yl)pyridine-3-carboxamide] | ≤ 100 nM | ≤ 100 nM
COc1cnc2c(Oc3ccc(NC(=O)c4cnc(C)c(-c5ccco5)c4O)cc3F)ccnc2c1 [Compound 96, N-[3-Fluoro-4-[(7-methoxy-1,5-naphthyridin-4-yl)oxy]phenyl]-5-(2-furyl)-4-hydroxy-6-methyl-pyridine-3-carboxamide] | ≤ 100 nM | ≤ 100 nM
COc1cc2nccc(Oc3ccc(NC(=O)c4c(C)n(C)c(C)c(-c5cccs5)c4=O)cc3)c2nc1OC [Compound 167, N-[4-[(6,7-Dimethoxy-1,5-naphthyridin-4-yl)oxy]phenyl]-1,2,6-trimethyl-4-oxo-5-thiophen-2-ylpyridine-3-carboxamide] | ≤ 100 nM | 300 to 1000 nM
COc1cc2nccc(Oc3ccc(NC(=O)c4cnc(C)c(-c5ccc(C)s5)c4O)cc3F)c2nc1OC [Compound 94, N-[4-[(6,7-Dimethoxy-1,5-naphthyridin-4-yl)oxy]-3-fluoro-phenyl]-4-hydroxy-6-methyl-5-(5-methyl-2-thienyl) pyridine-3-carboxamide] | ≤ 100 nM | ≤ 100 nM
COc1cc2nccc(Oc3ccc(NC(=O)c4cnc(C)c(-c5cccs5)c4O)cc3F)c2nc1OC [Compound 90, N-[4-[(6,7-Dimethoxy-1,5-naphthyridin-4-yl)oxy]-3-fluoro-phenyl]-4-hydroxy-6-methyl-5-(2-thienyl)pyridine-3-carboxamide] | ≤ 100 nM | ≤ 100 nM
COc1cc2nccc(Oc3ccc(NC(=O)c4cnc(C)c(-c5cscn5)c4O)cc3F)c2nc1OC [Compound 142, N-[4-[(6,7-Dimethoxy-1,5-naphthyridin-4-yl)oxy]-3-fluorophenyl]-4-hydroxy-6-methyl-5-(1,3-thiazol-4-yl)pyridine-3-carboxamide] | ≤ 100 nM | ≤ 100 nM
COc1cnc2c(Oc3ccc(NC(=O)c4cnc(C)c(-c5ccc(C)o5)c4O)cc3F)ccnc2c1 [Compound 97, N-[3-Fluoro-4-[(7-methoxy-1,5-naphthyridin-4-yl)oxy]phenyl]-4-hydroxy-6-methyl-5-(5-methyl-2-furyl)pyridine-3-carboxamide] | 100 to 300 nM | ≤ 100 nM
COc1cc2nccc(Oc3ccc(NC(=O)c4c(C)n(C)c(C)c(-c5ccco5)c4=O)cc3F)c2nc1OC [Compound 160, N-[4-[(6,7-Dimethoxy-1,5-naphthyridin-4-yl)oxy]-3-fluorophenyl]-5-(furan-2-yl)-1,2,6-trimethyl-4-oxopyridine-3-carboxamide] | ≤ 100 nM | 100 to 300 nM
COc1cc2nccc(Oc3ccc(NC(=O)c4c(C)nc(C)c(-c5cc(C(F)(F)F)nn5C)c4O)cc3F)c2nc1OC [Compound 138] | ≤ 100 nM | ≤ 100 nM
COc1cnc2c(Oc3ccc(NC(=O)c4cnc(C)c(-c5ccsc5)c4O)cc3F)ccnc2c1 [Compound 98, N-[3-Fluoro-4-[(7-methoxy-1,5-naphthyridin-4-yl)oxy]phenyl]-4-hydroxy-6-methyl-5-(3-thienyl)pyridine-3-carboxamide] | ≤ 100 nM | ≤ 100 nM
COc1cc2nccc(Oc3ccc(NC(=O)c4c(C)ncc(-c5ccc(C)o5)c4O)cc3F)c2nc1OC [Compound 120, N-[4-[(6,7-Dimethoxy-1,5-naphthyridin-4-yl)oxy]-3-fluorophenyl]-4-hydroxy-2-methyl-5-(5-methylfuran-2-yl)pyridine-3-carboxamide] | ≤ 100 nM | ≤ 100 nM
COc1cc2nccc(Oc3ccc(NC(=O)c4cnc(C)c(-c5sccc5C)c4O)cc3F)c2nc1OC [Compound 103, N-[4-[(6,7-Dimethoxy-1,5-naphthyridin-4-yl)oxy]-3-fluoro-phenyl]-4-hydroxy-6-methyl-5-(3-methyl-2-thienyl) pyridine-3-carboxamide] | ≤ 100 nM | ≤ 100 nM
COc1cc2nccc(Oc3ccc(NC(=O)c4c(C)nc(C)c(-c5cc(C)nn5C)c4O)cc3F)c2nc1OC [Compound 109, N-[4-[(6,7-Dimethoxy-1,5-naphthyridin-4-yl)oxy]-3-fluoro-phenyl]-5-(2,5-dimethylpyrazol-3-yl)-4-hydroxy-2,6-dimethyl-pyridine-3-carboxamide] | ≤ 100 nM | ≤ 100 nM
COc1cc2nccc(Oc3ccc(NC(=O)c4c(C)nc(C)c(-c5ccc(C)o5)c4O)cc3F)c2nc1OC [Compound 110, N-[4-[(6,7-Dimethoxy-1,5-naphthyridin-4-yl)oxy]-3-fluoro-phenyl]-4-hydroxy-2,6-dimethyl-5-(5-methyl-2-furyl)pyridine-3-carboxamide] | ≤ 100 nM | ≤ 100 nM
